Data: patent US20230017045A1, “PYRIDINE AND PYRIMIDINE CARBOXYLATE HERBICIDES AND METHODS OF USE THEREOF” (Dow AgroSciences LLC, priority 2017, published 2023)

tested on: test plant species; assay: Post-emergent herbicidal activity test (greenhouse, foliar spray, visual growth reduction); type: in vivo; details: post-emergence, 336 h, ALOMY: blackgrass (Alopecurus myosuroides), 140 g ai/ha, 14 days after application, read-out: Visual Growth Reduction (%) 14 Days After Application, ALOMY
Description: Post-emergent Test: Seeds or nutlets of the desired test plant species were planted in Sun Gro Metro-Mix® 360 planting mixture, which typically has a pH of 6.0 to 6.8 and an organic matter content of about 30 percent, in plastic pots with a surface area of 64 square centimeters. In some aspects, to ensure good germination and healthy plants, a fungicide treatment and/or other chemical or physical treatment was applied. The plants were grown for 7-21 d in a greenhouse with an approximate 15 h photoperiod which was maintained at 23-29° C. during the day and 22-28° C. during the night. Nutrients and water were added on a regular basis and supplemental lighting was provided with overhead metal halide 1000-Watt lamps as necessary. Plants were used for testing when they reached the first or second true leaf stage. A weighed amount, determined by the highest rate to be tested, of each test compound was placed in a 25 mL glass vial and was dissolved in 4 mL of a 97:3 v/v mixture of acetone and DMSO to obtain concentrated stock solutions. […] The concentrated stock solutions obtained were diluted with 20 mL of an aqueous mixture containing acetone, water, isopropyl alcohol, DMSO, […] crop oil concentrate, and X-77 surfactant in a 48.5:39:10:1.5:1.0:0.02 v/v ratio to obtain spray solutions containing the application rate. Compound requirements are based upon a 12 mL application volume at a rate of 187 liters per hectare (L/ha). Formulated compounds were applied to the plant material with an overhead Mandel track sprayer equipped with […] nozzles calibrated to deliver 187 L/ha over an application area of 0.64 square meters at a spray height of 18 inches (43 cm) above the average plant canopy height. Control plants were sprayed in the same manner with the solvent blank. The treated plants and control plants were placed in a greenhouse as described above and watered by subirrigation to prevent wash-off of the test compounds. After 14 d, the condition of the test plants as compared with that of the nontreated and control plants was determined visually and scored on a scale of 0 to 100 percent where 0 corresponds to no injury and 100 corresponds to complete control. In the reporting of the results, Table A: Percent Growth Reduction Conversion Table was used.

SMILES | pest or weed control at 140 g/ha [%]
O=C(O)c1nc(-c2ncc(Cl)cc2Cl)ccc1Cl [F195, 3′,5,5′-Trichloro-[2,2′-bipyridine]-6-carboxylic acid] | 0 to 29
COC(=O)c1nc(-c2ccc(OC(F)F)cc2Cl)ccc1Cl [F157, methyl 3-chloro-6-(2-chloro-4-(difluoromethoxy)phenyl)picolinate] | 0 to 29
COC(=O)c1nc(-c2cc(OC)c(Cl)cc2Cl)ccc1Cl [F47, Methyl 3-chloro-6-(2,4-dichloro-5-methoxyphenyl) picolinate] | 0 to 29

same assay, conditions: post-emergence, 336 h, AMARE: redroot pigweed (Amaranthus retroflexus), 140 g ai/ha, 14 days after application, read-out: Visual Growth Reduction (%) 14 Days After Application, AMARE

SMILES | pest or weed control at 140 g/ha [%]
O=C(O)c1nc(-c2ncc(Cl)cc2Cl)ccc1Cl [F195, 3′,5,5′-Trichloro-[2,2′-bipyridine]-6-carboxylic acid] | 95 to 100
COC(=O)c1nc(-c2ccc(OC(F)F)cc2Cl)ccc1Cl [F157, methyl 3-chloro-6-(2-chloro-4-(difluoromethoxy)phenyl)picolinate] | 95 to 100
COC(=O)c1nc(-c2cc(OC)c(Cl)cc2Cl)ccc1Cl [F47, Methyl 3-chloro-6-(2,4-dichloro-5-methoxyphenyl) picolinate] | 0 to 29

same assay, conditions: post-emergence, 336 h, AVEFA: wild oat (Avena fatua), 140 g ai/ha, 14 days after application, read-out: Visual Growth Reduction (%) 14 Days After Application, AVEFA

SMILES | pest or weed control at 140 g/ha [%]
O=C(O)c1nc(-c2ncc(Cl)cc2Cl)ccc1Cl [F195, 3′,5,5′-Trichloro-[2,2′-bipyridine]-6-carboxylic acid] | 30 to 44
COC(=O)c1nc(-c2ccc(OC(F)F)cc2Cl)ccc1Cl [F157, methyl 3-chloro-6-(2-chloro-4-(difluoromethoxy)phenyl)picolinate] | 45 to 59
COC(=O)c1nc(-c2cc(OC)c(Cl)cc2Cl)ccc1Cl [F47, Methyl 3-chloro-6-(2,4-dichloro-5-methoxyphenyl) picolinate] | 0 to 29

same assay, conditions: post-emergence, 336 h, CHEAL: lambsquarters (Chenopodium album), 140 g ai/ha, 14 days after application, read-out: Visual Growth Reduction (%) 14 Days After Application, CHEAL

SMILES | pest or weed control at 140 g/ha [%]
O=C(O)c1nc(-c2ncc(Cl)cc2Cl)ccc1Cl [F195, 3′,5,5′-Trichloro-[2,2′-bipyridine]-6-carboxylic acid] | 95 to 100
COC(=O)c1nc(-c2ccc(OC(F)F)cc2Cl)ccc1Cl [F157, methyl 3-chloro-6-(2-chloro-4-(difluoromethoxy)phenyl)picolinate] | 85 to 94
COC(=O)c1nc(-c2cc(OC)c(Cl)cc2Cl)ccc1Cl [F47, Methyl 3-chloro-6-(2,4-dichloro-5-methoxyphenyl) picolinate] | 0 to 29

same assay, conditions: post-emergence, 336 h, CIRAR: canada thistle (Cirsium arvense), 140 g ai/ha, 14 days after application, read-out: Visual Growth Reduction (%) 14 Days After Application, CIRAR

SMILES | pest or weed control at 140 g/ha [%]
O=C(O)c1nc(-c2ncc(Cl)cc2Cl)ccc1Cl [F195, 3′,5,5′-Trichloro-[2,2′-bipyridine]-6-carboxylic acid] | 0 to 29
COC(=O)c1nc(-c2ccc(OC(F)F)cc2Cl)ccc1Cl [F157, methyl 3-chloro-6-(2-chloro-4-(difluoromethoxy)phenyl)picolinate] | 85 to 94
COC(=O)c1nc(-c2cc(OC)c(Cl)cc2Cl)ccc1Cl [F47, Methyl 3-chloro-6-(2,4-dichloro-5-methoxyphenyl) picolinate] | 0 to 29

same assay, conditions: post-emergence, 336 h, CYPES: yellow nutsedge (Cyperus esculentus), 140 g ai/ha, 14 days after application, read-out: Visual Growth Reduction (%) 14 Days After Application, CYPES

SMILES | pest or weed control at 140 g/ha [%]
O=C(O)c1nc(-c2ncc(Cl)cc2Cl)ccc1Cl [F195, 3′,5,5′-Trichloro-[2,2′-bipyridine]-6-carboxylic acid] | 0 to 29
COC(=O)c1nc(-c2ccc(OC(F)F)cc2Cl)ccc1Cl [F157, methyl 3-chloro-6-(2-chloro-4-(difluoromethoxy)phenyl)picolinate] | 0 to 29
COC(=O)c1nc(-c2cc(OC)c(Cl)cc2Cl)ccc1Cl [F47, Methyl 3-chloro-6-(2,4-dichloro-5-methoxyphenyl) picolinate] | 0 to 29

same assay, conditions: post-emergence, 336 h, DIGSA: crabgrass (Digitaria sanguinalis), 140 g ai/ha, 14 days after application, read-out: Visual Growth Reduction (%) 14 Days After Application, DIGSA

SMILES | pest or weed control at 140 g/ha [%]
O=C(O)c1nc(-c2ncc(Cl)cc2Cl)ccc1Cl [F195, 3′,5,5′-Trichloro-[2,2′-bipyridine]-6-carboxylic acid] | 60 to 74
COC(=O)c1nc(-c2ccc(OC(F)F)cc2Cl)ccc1Cl [F157, methyl 3-chloro-6-(2-chloro-4-(difluoromethoxy)phenyl)picolinate] | 85 to 94
COC(=O)c1nc(-c2cc(OC)c(Cl)cc2Cl)ccc1Cl [F47, Methyl 3-chloro-6-(2,4-dichloro-5-methoxyphenyl) picolinate] | 0 to 29

same assay, conditions: post-emergence, 336 h, ECHCG: barnyardgrass (Echinochloa crus-galli), 140 g ai/ha, 14 days after application, read-out: Visual Growth Reduction (%) 14 Days After Application, ECHCG

SMILES | pest or weed control at 140 g/ha [%]
O=C(O)c1nc(-c2ncc(Cl)cc2Cl)ccc1Cl [F195, 3′,5,5′-Trichloro-[2,2′-bipyridine]-6-carboxylic acid] | 75 to 84
COC(=O)c1nc(-c2ccc(OC(F)F)cc2Cl)ccc1Cl [F157, methyl 3-chloro-6-(2-chloro-4-(difluoromethoxy)phenyl)picolinate] | 85 to 94
COC(=O)c1nc(-c2cc(OC)c(Cl)cc2Cl)ccc1Cl [F47, Methyl 3-chloro-6-(2,4-dichloro-5-methoxyphenyl) picolinate] | 0 to 29

same assay, conditions: post-emergence, 336 h, IPOHE: ivy-leaf morning glory (Ipomoea hederacea), 140 g ai/ha, 14 days after application, read-out: Visual Growth Reduction (%) 14 Days After Application, IPOHE

SMILES | pest or weed control at 140 g/ha [%]
O=C(O)c1nc(-c2ncc(Cl)cc2Cl)ccc1Cl [F195, 3′,5,5′-Trichloro-[2,2′-bipyridine]-6-carboxylic acid] | 95 to 100
COC(=O)c1nc(-c2ccc(OC(F)F)cc2Cl)ccc1Cl [F157, methyl 3-chloro-6-(2-chloro-4-(difluoromethoxy)phenyl)picolinate] | 95 to 100

same assay, conditions: post-emergence, 336 h, KCHSC: kochia (Bassia scoparia), 140 g ai/ha, 14 days after application, read-out: Visual Growth Reduction (%) 14 Days After Application, KCHSC

SMILES | pest or weed control at 140 g/ha [%]
O=C(O)c1nc(-c2ncc(Cl)cc2Cl)ccc1Cl [F195, 3′,5,5′-Trichloro-[2,2′-bipyridine]-6-carboxylic acid] | 60 to 74
COC(=O)c1nc(-c2ccc(OC(F)F)cc2Cl)ccc1Cl [F157, methyl 3-chloro-6-(2-chloro-4-(difluoromethoxy)phenyl)picolinate] | 85 to 94
COC(=O)c1nc(-c2cc(OC)c(Cl)cc2Cl)ccc1Cl [F47, Methyl 3-chloro-6-(2,4-dichloro-5-methoxyphenyl) picolinate] | 0 to 29

same assay, conditions: post-emergence, 336 h, ORYSA: rice (Oryza sativa), 140 g ai/ha, 14 days after application, read-out: Visual Growth Reduction (%) 14 Days After Application, ORYSA

SMILES | pest or weed control at 140 g/ha [%]
O=C(O)c1nc(-c2ncc(Cl)cc2Cl)ccc1Cl [F195, 3′,5,5′-Trichloro-[2,2′-bipyridine]-6-carboxylic acid] | 30 to 44
COC(=O)c1nc(-c2ccc(OC(F)F)cc2Cl)ccc1Cl [F157, methyl 3-chloro-6-(2-chloro-4-(difluoromethoxy)phenyl)picolinate] | 0 to 29
COC(=O)c1nc(-c2cc(OC)c(Cl)cc2Cl)ccc1Cl [F47, Methyl 3-chloro-6-(2,4-dichloro-5-methoxyphenyl) picolinate] | 0 to 29

same assay, conditions: post-emergence, 336 h, SETFA: giant foxtail (Setaria faberi), 140 g ai/ha, 14 days after application, read-out: Visual Growth Reduction (%) 14 Days After Application, SETFA

SMILES | pest or weed control at 140 g/ha [%]
O=C(O)c1nc(-c2ncc(Cl)cc2Cl)ccc1Cl [F195, 3′,5,5′-Trichloro-[2,2′-bipyridine]-6-carboxylic acid] | 60 to 74
COC(=O)c1nc(-c2ccc(OC(F)F)cc2Cl)ccc1Cl [F157, methyl 3-chloro-6-(2-chloro-4-(difluoromethoxy)phenyl)picolinate] | 85 to 94
COC(=O)c1nc(-c2cc(OC)c(Cl)cc2Cl)ccc1Cl [F47, Methyl 3-chloro-6-(2,4-dichloro-5-methoxyphenyl) picolinate] | 0 to 29

same assay, conditions: post-emergence, 336 h, SORVU: grain sorghum (Sorghum vulgare), 140 g ai/ha, 14 days after application, read-out: Visual Growth Reduction (%) 14 Days After Application, SORVU

SMILES | pest or weed control at 140 g/ha [%]
O=C(O)c1nc(-c2ncc(Cl)cc2Cl)ccc1Cl [F195, 3′,5,5′-Trichloro-[2,2′-bipyridine]-6-carboxylic acid] | 85 to 94
COC(=O)c1nc(-c2ccc(OC(F)F)cc2Cl)ccc1Cl [F157, methyl 3-chloro-6-(2-chloro-4-(difluoromethoxy)phenyl)picolinate] | 95 to 100
COC(=O)c1nc(-c2cc(OC)c(Cl)cc2Cl)ccc1Cl [F47, Methyl 3-chloro-6-(2,4-dichloro-5-methoxyphenyl) picolinate] | 0 to 29

same assay, conditions: post-emergence, 336 h, STEME: common chickweed (Stellaria media), 140 g ai/ha, 14 days after application, read-out: Visual Growth Reduction (%) 14 Days After Application, STEME

SMILES | pest or weed control at 140 g/ha [%]
O=C(O)c1nc(-c2ncc(Cl)cc2Cl)ccc1Cl [F195, 3′,5,5′-Trichloro-[2,2′-bipyridine]-6-carboxylic acid] | 0 to 29
COC(=O)c1nc(-c2ccc(OC(F)F)cc2Cl)ccc1Cl [F157, methyl 3-chloro-6-(2-chloro-4-(difluoromethoxy)phenyl)picolinate] | 0 to 29
COC(=O)c1nc(-c2cc(OC)c(Cl)cc2Cl)ccc1Cl [F47, Methyl 3-chloro-6-(2,4-dichloro-5-methoxyphenyl) picolinate] | 0 to 29

same assay, conditions: post-emergence, 336 h, TRZAS: wheat, spring (Triticum aestivum), 140 g ai/ha, 14 days after application, read-out: Visual Growth Reduction (%) 14 Days After Application, TRZAS

SMILES | pest or weed control at 140 g/ha [%]
O=C(O)c1nc(-c2ncc(Cl)cc2Cl)ccc1Cl [F195, 3′,5,5′-Trichloro-[2,2′-bipyridine]-6-carboxylic acid] | 45 to 59
COC(=O)c1nc(-c2ccc(OC(F)F)cc2Cl)ccc1Cl [F157, methyl 3-chloro-6-(2-chloro-4-(difluoromethoxy)phenyl)picolinate] | 60 to 74
COC(=O)c1nc(-c2cc(OC)c(Cl)cc2Cl)ccc1Cl [F47, Methyl 3-chloro-6-(2,4-dichloro-5-methoxyphenyl) picolinate] | 0 to 29
